Test results as given in the NIST ThermoML archive (doi:10.1016/j.fluid.2014.05.034).
Numbers after ± are expanded uncertainties.

Experiments:
[1] = for Normal melting temperature: Crystal; for mass density: 101.33 kPa, Liquid, Vibrating tube method
[2] = Molar enthalpy of transition or fusion; details: Crystal; DSC

| Compound | Normal melting temperature ([1]; visual observation) [°C] | further results |
| --- | --- | --- |
| CCCCCC[n+]1ccc2ccccc2c1.O=S(=O)([N-]S(=O)(=O)C(F)(F)F)C(F)(F)F [N-hexylisoquinolinium bis(trifluoromethylsulfonyl)imide] | 55.2 ± 1.1 |  |
| OCCc1ccccc1 [2-phenylethanol] |  | mass density ([1]; 293.15 K): 1019 ± 1 kg/m3 |
| CC[N+]1(C)CCCCC1.O=S(=O)([N-]S(=O)(=O)C(F)(F)F)C(F)(F)F | 82.8 ± 1.1 |  |
| C[n+]1ccn(CC#N)c1.N#Cc1nc(C(F)(F)F)[n-]c1C#N | 93.0 ± 1.1 | Normal melting temperature ([1]; DTA): 92.7 ± 0.5 °C; Molar enthalpy of transition or fusion [2]: 7.36 ± 0.213 kcal/mol |
| CCCCn1cc[n+](C)c1.N#CC1=NC(C(F)(F)F)=NC1=C=[N-] |  | mass density ([1]; 298.15 K): 1199.65 ± 5 kg/m3 |
| CCCCCC[n+]1cccc2ccccc21.O=S(=O)([N-]S(=O)(=O)C(F)(F)F)C(F)(F)F [1-hexylquinolinium bis(trifluoromethylsulfonyl)amide] | 45 ± 1.1 |  |
